The values that follow come from patent publication US10836756B2, “Crystalline salts of peptide epoxyketone immunoproteasome inhibitor” (KEZAR LIFE SCIENCES, priority 2016, dated 2020).

Series [1] can be described thus: Stability of Form A and its freebase, one month storage. The class given is physicochemical. As to conditions: for % Decomposition: 1 month. As for the experimental part:
The stability of Form A and its freebase was tested at ambient conditions (25° C. and 40% relative humidity, “RH”), and at elevated temperature and humidity (40° C. and 75% RH) over the duration of one month.

The nature of series [2]: Solubility of compound G (amorphous) and its monomaleate salt (crystalline) in water, buffers and solvents. The class given is physicochemical.
Series [3] can be described thus: pKa of the monomaleate salt. The class given is physicochemical.
The conditions of series [4]: Olovson et al. 1986, Kumar et al. 2013; cited from earlier work.

Counter-ions that a name gives are not always drawn. Like-named read-outs stand apart in the source and are kept apart here.

The solubility is how much of the substance goes into solution per volume. As for `COc1ccc([C@@H](O)[C@H](NC(=O)[C@H](C)NC(=O)CN2CCOCC2)C(=O)N[C@@H](CC2=CCCC2)C(=O)[C@@]2(C)CO2)cc1` [compound G, (2S,3R)—N-[(2S)-3-(cyclopent-1-en-1-yl)-1-[(2R)-2-methyloxiran-2-yl]-1-oxopropan-2-yl]-3-hydroxy-3-(4-methoxyphenyl)-2-[(2S)-2-[2-(morpholin-4-yl)acetamido]propanamido]propanamide], the “% Decomposition” value in series [1] (25° C./40% RH, lot 1) came out at 1.9%; in series [1] (25° C./40% RH, lot 2), 1.6%; in series [1] (25° C./40% RH, lot 3), 1.4%; in series [1] (40° C./75% RH, lot 1), 67.5%; in series [1] (40° C./75% RH, lot 2) it was 28.8%; in series [1] (40° C./75% RH, lot 3), 21.1%. Further, the “% Purity at 1 Month” value is recorded as 93.2% in series [1] (25° C./40% RH, lot 1 (purity at t = 0 95.1)); 84.0% in series [1] (25° C./40% RH, lot 2 (purity at t = 0 85.6)); 92.3% in series [1] (25° C./40% RH, lot 3 (purity at t = 0 93.7)); 92.3% in series [1] (40° C./75% RH, lot 1 (purity at t = 0 95.1)); 92.3% in series [1] (40° C./75% RH, lot 2 (purity at t = 0 85.6)); 72.5% in series [1] (40° C./75% RH, lot 3 (purity at t = 0 93.7)). In series [1] (40° C. and 75% RH, one month), the “stability at elevated temperature and humidity (in words)” value is listed as “rapid decomposition”. In addition, the solubility in series [2] (25 mM Na citrate buffer, pH 4.9, aqueous buffer, 25 mM Na Citrate, pH 4.9, amorphous, read-out: Solubility) was 46 mg/mL; in series [2] (25 mM Na citrate buffer, pH 5.1, aqueous buffer, 25 mM Na Citrate, pH 5.1, amorphous, read-out: Solubility) it was 32 mg/mL; in series [2] (25 mM Na citrate buffer, pH 5.2, aqueous buffer, 25 mM Na Citrate, pH 5.2, amorphous, read-out: Solubility), 24.8 mg/mL; in series [2] (25 mM Na citrate buffer, pH 5.4, aqueous buffer, 25 mM Na Citrate, pH 5.4, amorphous, read-out: Solubility) it was 19.5 mg/mL; in series [2] (25 mM Na citrate buffer, pH 5.8, aqueous buffer, 25 mM Na Citrate, pH 5.8, amorphous, read-out: Solubility) it was 11.2 mg/mL; in series [2] (25 mM Na citrate buffer, pH 6.3, aqueous buffer, 25 mM Na Citrate, pH 6.3, amorphous, read-out: Solubility) it was 9.8 mg/mL. The solubility in series [2] (25 mM Na citrate buffer, pH 6.8, aqueous buffer, 25 mM Na Citrate, pH 6.8, amorphous, read-out: Solubility) was 8.8 mg/mL; in series [2] (0.9% saline, pH 7.6, saline or isotonic, 0.9% saline, pH 7.6, amorphous, read-out: Solubility) it was 9.4 mg/mL; in series [2] (10% EtOH, aqueous with cosolvent or surfactant or cyclodextrin, EtOH, 10%, amorphous, read-out: Solubility), 13.7 mg/mL; in series [2] (10% NMP, aqueous with cosolvent or surfactant or cyclodextrin, NMP, 10%, amorphous, read-out: Solubility), 28.8 mg/mL; in series [2] (10% PEG 400, aqueous with cosolvent or surfactant or cyclodextrin, PEG 400, 10%, amorphous, read-out: Solubility), 11.8 mg/mL; in series [2] (10% PG, aqueous with cosolvent or surfactant or cyclodextrin, PG, 10%, amorphous, read-out: Solubility), 12.1 mg/mL. Moreover, the solubility in series [2] (10% glycerol, aqueous with cosolvent or surfactant or cyclodextrin, glycerol, 10%, amorphous, read-out: Solubility) was 8.6 mg/mL; in series [2] (33% EtOH, aqueous with cosolvent or surfactant or cyclodextrin, EtOH, 33%, amorphous, read-out: Solubility) it was 20 mg/mL; in series [2] (33% NMP, aqueous with cosolvent or surfactant or cyclodextrin, NMP, 33%, amorphous, read-out: Solubility), > 100 mg/mL; in series [2] (33% PEG 400, aqueous with cosolvent or surfactant or cyclodextrin, PEG 400, 33%, amorphous, read-out: Solubility), 17.4 mg/mL; in series [2] (33% PG, aqueous with cosolvent or surfactant or cyclodextrin, PG, 33%, amorphous, read-out: Solubility) it was 20.5 mg/mL; in series [2] (33% glycerol, aqueous with cosolvent or surfactant or cyclodextrin, glycerol, 33%, amorphous, read-out: Solubility), 5.8 mg/mL. Moreover, the solubility in series [2] (67% EtOH, aqueous with cosolvent or surfactant or cyclodextrin, EtOH, 67%, amorphous, read-out: Solubility) was > 100 mg/mL; in series [2] (67% NMP, aqueous with cosolvent or surfactant or cyclodextrin, NMP, 67%, amorphous, read-out: Solubility), > 100 mg/mL; in series [2] (67% PEG 400, aqueous with cosolvent or surfactant or cyclodextrin, PEG 400, 67%, amorphous, read-out: Solubility) it was > 50 mg/mL; in series [2] (67% PG, aqueous with cosolvent or surfactant or cyclodextrin, PG, 67%, amorphous, read-out: Solubility), > 100 mg/mL; in series [2] (67% glycerol, aqueous with cosolvent or surfactant or cyclodextrin, glycerol, 67%, amorphous, read-out: Solubility) it was 5.4 mg/mL; in series [2] (100% EtOH, organic solvent or mixture, EtOH, 100%, amorphous, read-out: Solubility) it was > 100 mg/mL. Further, the solubility in series [2] (100% NMP, organic solvent or mixture, NMP, 100%, amorphous, read-out: Solubility) was > 100 mg/mL; in series [2] (100% PEG 400, organic solvent or mixture, PEG 400, 100%, amorphous, read-out: Solubility), > 50 mg/mL; in series [2] (100% PG, organic solvent or mixture, PG, 100%, amorphous, read-out: Solubility), > 100 mg/mL; in series [2] (PBS, pH 7.2, aqueous buffer, PBS, pH 7.2, amorphous, read-out: Solubility), 7.6 mg/mL; in series [2] (glycerol, 100%, amorphous) it was “not soluble”; in series [2] (water, pH 7.4, water, Water, pH 7.4, amorphous, read-out: Solubility), 8.9 mg/mL. For the same compound, the solubility in series [2] (water, read-out: solubility in water) worked out at 8.9 mg/mL.
One may read the pKa as the pH at which an ionisable group is half protonated. `COc1ccc([C@@H](O)[C@H](NC(=O)[C@H](C)NC(=O)CN2CCOCC2)C(=O)N[C@@H](CC2=CCCC2)C(=O)[C@@]2(C)CO2)cc1` [monomaleate salt of compound G]: in series [3], the pKa is 5. Also, the solubility in series [2] (2-methyltetrahydrofuran, organic solvent or mixture, 2-Methyltetrahydrofuran, crystalline, read-out: Solubility) was 1.76 mg/mL; in series [2] (acetone, organic solvent or mixture, Acetone, crystalline, read-out: Solubility) it was 3.19 mg/mL; in series [2] (acetonitrile, organic solvent or mixture, Acetonitrile (ACN), crystalline, read-out: Solubility), 1.3 mg/mL; in series [2] (aqueous medium, aqueous, read-out: aqueous solubility), > 100 mg/mL; in series [2] (dichloromethane, organic solvent or mixture, Dichloromethane (DCM), crystalline, read-out: Solubility), 0.21 mg/mL; in series [2] (ethanol, organic solvent or mixture, Ethanol (EtOH), crystalline, read-out: Solubility), 6.97 mg/mL. Also, the solubility was 0.47 mg/mL in series [2] (ethyl acetate, organic solvent or mixture, Ethyl acetate (EA), crystalline, read-out: Solubility); 3.28 mg/mL in series [2] (isopropanol, organic solvent or mixture, Isopropanol (IPA), crystalline, read-out: Solubility); 0.13 mg/mL in series [2] (isopropyl acetate, organic solvent or mixture, Isopropyl acetate (IPAc), crystalline, read-out: Solubility); 42.1 mg/mL in series [2] (methanol, organic solvent or mixture, Methanol (MeOH), crystalline, read-out: Solubility); 0.17 mg/mL in series [2] (methyl tert-butyl ether, organic solvent or mixture, Methyl tert-butyl ether (MTBE), crystalline, read-out: Solubility); 1.96 mg/mL in series [2] (tetrahydrofuran, organic solvent or mixture, Tetrahydrofuran (THF), crystalline, read-out: Solubility). Also, the solubility is 0.02 mg/mL in series [2] (toluene, organic solvent or mixture, Toluene, crystalline, read-out: Solubility) and > 100 mg/mL in series [2] (water, ambient temperature (e.g., 20° C. to 25° C.), read-out: solubility in water).
Regarding `C=CCc1ccccc1OCC(O)CNC(C)C` (stereo not drawn) [alprenolol], the “solubility of the maleate salt compared to other counterions, such as fumarate” value in series [4] is reported as “decreased solubility”.
